# Assays:
# Assay type in all cases: cell-based
# [1] = system: IL-8 secreted by human COPD airway epithelial cells; assay: IL-8 ELISA, COPD airway epithelial cell monolayers, Cytomix 24 h then Cytomix + treatment 24 h (curative); conditions: FIG. 17, 19; curative: Cytomix 24 h, then Cytomix + HA 1 mg/mL or Dexa 10^-6M 24 h; n=5 COPD patients
# Description: (§1) FIG. 17: Measurement by ELISA assay of the pro-inflammatory chemokine IL-8 secreted human COPD airway epithelial cells cultured as monolayers. Airway epithelial cells were seeded in 48-wells plates and cultured until confluence was reached. Cells were then treated for 24 h with a pro-inflammatory chemokine cocktail (TNFα, IL1β and IFNγ 10 ng/ml each) called Cytomix (Cy). Cells were thereafter treated with a combo containing Cytomix and the anti-inflammatory dexamethasone (Dexa; 10^-6M), 15-45 kDa sodium-hyaluronic acid (HA-Na 15-45 kDa) (ARD—Pomacle—France—as prepared according to WO2004050187), 15-30 kDa sodium-hyaluronic acid (HA-Na 15-30 kDa) (Sigma Aldrich), or 30-50 kDa sodium-hyaluronic acid (HA-Na 30-50 kDa) (Sigma Aldrich) at 1 mg/mL during the following 24 h. The culture medium was finally collected and the IL-8 content was determined by ELISA assay. n=5 different COPD patients. p<0.001 (***); p<0.01 (**); p<0.05 (*). ns: non-significant.
# FIG. 19: Measurement by ELISA assay of the pro-inflammatory chemokine IL-8 secreted by human COPD airway epithelial cells cultured as monolayers. Airway epithelial cells were seeded in 48-wells plates and cultured until confluence was reached. Cells were then treated for 24 h with a pro-inflammatory chemokine cocktail (TNFα, IL1β and IFNγ 10 ng/ml each) called Cytomix (Cy). Cells were thereafter treated with a combo containing Cytomix and the anti-inflammatory dexamethasone (Dexa; 10^-6M), or 15-45 kDa sodium-hyaluronic acid (HA-Na 15-45 kDa) (ARD—Pomacle—France—as prepared according to WO2004050187), 15-45 kDa calcium-hyaluronic acid (HA-Ca 15-45 kDa; ARD), or 15-45 kDa potassium hyaluronic acid (HA-K 15-45 kDa; ARD) at 1 mg/mL during the following 24 h. The culture medium was finally collected and the IL-8 content was determined. n=5 different COPD patients. p<0.001 (***); p<0.01 (**); p<0.05 (*). ns: non-significant.
# [2] = system: IL-8 secreted by non-CF human airway epithelial cells; assay: IL-8 ELISA, non-CF airway epithelial cell monolayers, Cytomix 24 h then Cytomix + treatment 24 h (curative); conditions: FIG. 12, 15; curative: Cytomix 24 h, then Cytomix + HA 1 mg/mL or Dexa 10^-6M 24 h; n=8 non-CF patients
# Description: as §1, with “12:” for “17:”, “secreted non-CF” for “secreted”, “human” for “human COPD”, “n=8” for “n=5”, “non-CF” for “COPD”
# FIG. 15: Measurement by ELISA assay of the pro-inflammatory chemokine IL-8 secreted by non-CF human airway epithelial cells cultured as monolayers. Airway epithelial cells were seeded in 48-wells plates and cultured until confluence was reached. Cells were then treated for 24 h with a pro-inflammatory chemokine cocktail (TNFα, IL1β and IFNγ 10 ng/ml each) called Cytomix (Cy). Cells were thereafter treated with a combo containing Cytomix and the anti-inflammatory dexamethasone (Dexa; 10^-6M), 15-45 kDa sodium-hyaluronic acid (HA-Na 15-45 kDa) (ARD—Pomacle—France—as prepared according to WO2004050187), 15-45 kDa calcium-hyaluronic acid (HA-Ca 15-45 kDa; ARD), or 15-45 kDa potassium hyaluronic acid (HA-K 15-45 kDa; ARD) at 1 mg/mL during the following 24 h. The culture medium was finally collected and the IL-8 content was determined. n=8 different non-CF patients. p<0.001 (***); p<0.01 (**); p<0.05 (*). ns: non-significant.
# [3] = system: IL-8 secreted by F508del/F508del CF human airway epithelial cells; assay: IL-8 ELISA, CF airway epithelial cell monolayers, Cytomix + treatment 24 h (co-treatment); conditions: FIG. 3, 6; co-treatment: Cytomix + HA 1 mg/mL or Dexa 10^-6M 24 h; n=7 CF patients
# Description: FIG. 3: Measurement by ELISA assay of the pro-inflammatory chemokine IL-8 secreted by F508del/F508del CF human airway epithelial cells cultured as monolayers. Airway epithelial cells were seeded in 48-wells plates and cultured until confluence was reached. Cells were then treated for 24 h with a combo containing a pro-inflammatory chemokine cocktail (TNFα, IL1β and IFNγ; 10 ng/mL each) called Cytomix (Cy) and the anti-inflammatory dexamethasone (Dexa; 10^-6M), 15-45 kDa sodium-hyaluronic acid (HA-Na 15-45 kDa) (ARD—Pomacle—France—as prepared according to WO2004050187), 15-30 kDa sodium-hyaluronic acid (HA-Na 15-30 kDa) (Sigma Aldrich), or 30-50 kDa sodium-hyaluronic acid (HA-Na 30-50 kDa) (Sigma Aldrich) at 1 mg/mL. The culture medium was then collected and the IL-8 content was determined. n=7 F508del/F508del CF patient. p<0.001 (***); p<0.01 (**); p<0.05 (*). ns: non-significant.
# FIG. 6: Measurement by ELISA assay of the pro-inflammatory chemokine IL-8 secreted by F508del/F508del CF human airway epithelial cells cultured as monolayers. Airway epithelial cells were seeded in 48-wells plates and cultured until confluence was reached. Cells were then treated for 24 h with a combo containing a pro-inflammatory chemokine cocktail (TNFα, IL1β and IFNγ 10 ng/mL each) called Cytomix (Cy) and the anti-inflammatory dexamethasone (Dexa; 10^-6M), or 15-45 kDa sodium-hyaluronic acid (HA-Na 15-45 kDa) (ARD—Pomacle—France—as prepared according to WO2004050187), 15-45 kDa calcium-hyaluronic acid (HA-Ca 15-45 kDa; ARD), or 15-45 kDa potassium-hyaluronic acid (HA-K 15-45 kDa; ARD) at 1 mg/mL. The culture medium was then collected and the IL-8 content was determined. n=7 different F508del/F508del CF patients. p<0.001 (***); p<0.01 (**); p<0.05 (*). ns: non-significant.
Compound,decrease in IL-8 secretion [1],decrease in IL-8 secretion [2],decrease in IL-8 secretion [3]
15-30 kDa sodium-hyaluronic acid [HA-Na 15-30 kDa],65%,46.1%,40.2%
15-45 kDa calcium-hyaluronic acid [HA-Ca 15-45 kDa],61.5%,6.5%,11.6%
15-45 kDa potassium-hyaluronic acid [HA-K 15-45 kDa],61.1%,17.8%,30%
15-45 kDa sodium-hyaluronic acid [HA-Na 15-45 kDa],60.2%,39.6%,33.9%
30-50 kDa sodium-hyaluronic acid [HA-Na 30-50 kDa],69.5%,34.8%,30.1%
"C[C@@H]1C[C@H]2[C@@H]3CCC4=CC(=O)C=C[C@]4(C)[C@@]3(F)[C@@H](O)C[C@]2(C)[C@@]1(O)C(=O)CO [Dexamethasone, dexamethasone, reference compound]",68.8%,21.1%,21.4%

# Reference: patent US20260158056A1, “USE OF LOW MOLECULAR WEIGHT HYALURONIC ACID FOR THE TREATMENT OF LUNG MUCOSAL INFLAMMATION” (INSTITUT NATIONAL DE LA SANTÉ ET DE LA RECHERCHE MÉDICALE, priority 2021, published 2026)
